One compound from ChEMBL document CHEMBL1129881 (Bioorg Med Chem Lett, 1997) can be followed below.

The assay has as its target Vasopressin V2 receptor (Sus scrofa, UniProt P32307). As to the kind of experiment: Tested for the inhibition to V2 subtype receptor using [3H]- (VS2) as radioligand at 3 nM and arginine-vasopressin at 2 uM in LLCPKI cells. The assay is classed as cell-based.

Sequence of Vasopressin V2 receptor (P32307 whole entry): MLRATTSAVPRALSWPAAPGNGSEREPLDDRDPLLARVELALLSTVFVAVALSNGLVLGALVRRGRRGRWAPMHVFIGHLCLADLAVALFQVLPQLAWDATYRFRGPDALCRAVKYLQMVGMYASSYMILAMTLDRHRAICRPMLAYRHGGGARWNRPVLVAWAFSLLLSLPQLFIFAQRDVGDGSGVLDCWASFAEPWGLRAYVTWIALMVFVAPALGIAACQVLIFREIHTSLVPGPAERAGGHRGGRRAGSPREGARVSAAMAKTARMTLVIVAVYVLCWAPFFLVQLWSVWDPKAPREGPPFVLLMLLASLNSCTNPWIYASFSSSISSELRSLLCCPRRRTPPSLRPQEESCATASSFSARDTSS

The compound `NC(=O)CC[C@@H]1NC(=O)[C@H](Cc2ccccc2)NC(=O)[C@H](Cc2ccc(O)cc2)NC(=O)[C@@H](N)CSSSC[C@@H](C(=O)N2CCC[C@H]2C(=O)N[C@@H](CCCN=C(N)N)C(=O)NCC(N)=O)NC(=O)[C@H](CC(N)=O)NC1=O` registered an IC50 of 9.5 nM.
